Laboratory results from patent publication US8008299B2, “Urotensin II receptor antagonists” (Janssen Pharmaceutica, N.V., priority 2007, dated 2011).
Like-named read-outs stand apart in the source and are kept apart here.

Columns and labels:
[1] = biological target: T1, rat GPR14 (U-II receptor) (Rattus norvegicus, UniProt P49684); assay: Rat UII Calcium Mobilization FLIPR Assay; format: cell-based; details: CHO cells transfected with rat GPR14; antagonist activity after 5 min incubation vs agonist (Ac)-CFWK(2-NaI)C-NH2 at 1 nM
T1 construct: expressed in transfected cells
T1 sequence (P49684 1-386): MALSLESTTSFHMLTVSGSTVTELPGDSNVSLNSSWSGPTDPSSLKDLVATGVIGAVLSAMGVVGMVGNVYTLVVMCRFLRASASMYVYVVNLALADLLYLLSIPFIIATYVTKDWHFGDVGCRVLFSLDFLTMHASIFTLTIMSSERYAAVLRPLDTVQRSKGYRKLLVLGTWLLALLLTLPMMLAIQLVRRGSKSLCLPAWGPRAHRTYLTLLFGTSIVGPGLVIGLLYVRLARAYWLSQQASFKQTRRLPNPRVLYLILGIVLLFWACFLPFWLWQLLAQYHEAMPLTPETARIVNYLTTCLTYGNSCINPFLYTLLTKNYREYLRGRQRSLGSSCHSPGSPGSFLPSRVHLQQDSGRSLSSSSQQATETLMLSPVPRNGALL
Source text: To derive these cells, the complete coding sequence of rat U-II (Genbank Accession No. U32673) was amplified by nested PCR from rat heart marathon-Ready cDNA. […] The PCR products were cloned into pcDNA3 (Invitrogen) digested with EcoR I and Xba I. Clones containing rat U-II receptor were verified by complete sequencing of the U-II receptor insert to ensure a lack of PCR-introduced errors. The constructed vector was transfected into CHO cells by using lipofectamine (GIBCO BRL). CHO cells with high expression of rat U-II receptor were selected and established as stable cell lines by using G418. CHO cells were seeded at 25,000 cells per well into 96-well, black-wall, clear-bottom microtiter plates 24 h before assay. Cells in culture media (DMEM/F12 containing 15 mM HEPES, L-glutamine, pyridoxine hydrochloride; 10% fetal bovine serum; 1 mg/mL G418 sulfate; antibiotic-antimycotic; pH 7.4) were loaded with proprietary dye, from the FLIPR Calcium Assay Kit (Molecular Devices), prepared in assay buffer (Hanks Balanced Salts Solution, 20 mM HEPES, 0.1% BSA, 2.5 mM probenecid, pH 7.4), and incubated for 1 h at 37° C. Calcium mobilization determinations were performed at room temperature (23° C.).

[2] = biological target: T2, Human UII (U-II receptor) in 6D9 human rhabdomyosarcoma cells (Homo sapiens, UniProt Q9UKP6); assay: Human UII Calcium Mobilization Assay; format: cell-based; details: 6D9 human rhabdomyosarcoma cells, FLIPR TETRA, average; read-out: Human UII Ca+ Mobilization Average IC50
T2 construct: 6D9: isolated by dilution subcloning of RMS13 cells, ATCC® Number: CRL-2061; host or cells: 6D9 human rhabdomyosarcoma cells (subclone of RMS13)
T2 sequence (Q9UKP6 1-389): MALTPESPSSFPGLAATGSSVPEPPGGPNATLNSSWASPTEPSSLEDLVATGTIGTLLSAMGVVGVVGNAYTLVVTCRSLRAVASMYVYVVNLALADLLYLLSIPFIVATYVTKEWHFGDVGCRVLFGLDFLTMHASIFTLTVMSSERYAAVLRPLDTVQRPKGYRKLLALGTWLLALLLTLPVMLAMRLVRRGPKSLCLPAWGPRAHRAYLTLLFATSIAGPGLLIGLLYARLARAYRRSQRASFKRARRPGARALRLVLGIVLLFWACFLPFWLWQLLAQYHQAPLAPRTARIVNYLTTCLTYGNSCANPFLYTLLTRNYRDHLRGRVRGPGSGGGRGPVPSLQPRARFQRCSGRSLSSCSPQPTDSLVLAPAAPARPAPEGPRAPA
Experimental: 25 μL of dye solution was added to the wells such that the final liquid volume before agonist/antagonist treatment was 50 μL for all assays. The cell plates were incubated at 37° C. for 45 minutes and the fluorescence intensity was measured on a Fluorometric Imaging Plate Reader (FLIPR^TETRA, Molecular Devices, Sunnyvale, Calif.).
Antagonist and agonist U-II were added at room temperature on the FLIPR^TETRA, and the fluorescence intensity before and after addition was measured over a period of 4 minutes. The dye incubation time and temperature as well as instrument setting was adjusted so the fluorescence intensity could be compared between plates on the same day. EC50 and IC50 were analyzed using GraphPad Prism 4 software (GraphPad Software Inc., San Diego, Calif.).
For assays, U-II agonist, U-II antagonist and urantide were diluted with HBSS/HEPES containing 0.01% FBS.
Test compounds were dissolved in DMSO at 10 mM concentration. The serial dilutions were carried out in HBSS/HEPES. The highest final DMSO concentration was at 0.1%.

[3] = biological target: T3, UT receptors in HSMM (Human Skeletal Muscle Myoblasts) (Homo sapiens, UniProt Q9UKP6); assay: Human Radioligand Binding Assay ((^125I)-U-II binding to intact HSMM)
T3 sequence (Q9UKP6 1-389): T2 sequence (Q9UKP6 1-389)

Row | IC50 [1] [nM] | IC50 [2] [nM] | Ki [3] [nM] | Structure (SMILES) | Ki ([3]; read-out: Human UII Average Binding Ki, intact HSMM, 0.150 nM (^125I)-U-II, 3 h, 25° C.) [nM]
1 | 53 | 278 | 56 | CCN1CCN(c2cccc3c2CN([C@H](CCCNS(=O)(=O)c2cn(C)cn2)c2ccc(OC)c(OC)c2)C3=O)CC1 [Cpd 53, 1-methyl-1H-imidazole-4-sulfonic acid {(4R)-4-(3,4-dimethoxy-phenyl)-4-[4-(4-ethyl-piperazin-1-yl)-1-oxo-1,3-dihydro-isoindol-2-yl]-butyl}-amide] | –
2 | 3 | 106 | 19 | CCN1CCN(c2cccc3c2CN([C@H](CCCSc2nc(C)cc(C)n2)c2ccc(OC)c(OC)c2)C3=O)CC1 [Cpd 27, 2-[(1R)-1-(3,4-dimethoxy-phenyl)-4-(4,6-dimethyl-pyrimidin-2-ylsulfanyl)-butyl]-4-(4-ethyl-piperazin-1-yl)-2,3-dihydro-isoindol-1-one] | –
3 | 16 | 206 | 46 | CCN1CCN(c2cccc3c2CN([C@H](CCCn2ccnc2C(C)C)c2ccc(OC)c(OC)c2)C3=O)CC1 [Cpd 104, 2-[(1R)-1-(3,4-dimethoxy-phenyl)-4-(2-isopropyl-imidazol-1-yl)-butyl]-4-(4-ethyl-piperazin-1-yl)-2,3-dihydro-isoindol-1-one] | –
4 | 8 | 319 | 24 | CCN1CCN(c2cccc3c2CN([C@H](CCCN2Cc4ccccc4C2)c2ccc(OC)c(OC)c2)C3=O)CC1 [Cpd 100, 2-[(1R)-4-(1,3-dihydro-isoindol-2-yl)-1-(3,4-dimethoxy-phenyl)-butyl]-4-(4-ethyl-piperazin-1-yl)-2,3-dihydro-isoindol-1-one] | –
5 | 11 | 602 | 135 | CCN1CCN(c2cccc3c2CN([C@H](CCCSc2cccc[n+]2[O-])c2ccc(OC)c(OC)c2)C3=O)CC1 [Cpd 31, {(4R)-4-(3,4-dimethoxy-phenyl)-4-[4-(4-ethyl-piperazin-1-yl)-1-oxo-1,3-dihydro-isoindol-2-yl]-butylsulfanyl}-pyridine 1-oxide] | –
6 | 465 | 3320 | > 300 | CCN1CCN(c2cccc3c2CN(C(c2ccc(OC)c(OC)c2)C2CCN(S(=O)(=O)c4cccs4)CC2)C3=O)CC1 (stereo not drawn) [Cpd 45, 2-{(3,4-dimethoxy-phenyl)-[1-(thiophene-2-sulfonyl)-piperidin-4-yl]-methyl}-4-(4-ethyl-piperazin-1-yl)-2,3-dihydro-isoindol-1-one] | –
7 | 31 | 1390 | 129 | CCN1CCN(c2cccc3c2CN([C@H](CCCn2cnnn2)c2ccc(OC)c(OC)c2)C3=O)CC1 [Cpd 14, 2-[(1R)-1-(3,4-dimethoxy-phenyl)-4-tetrazol-1-yl-butyl]-4-(4-ethyl-piperazin-1-yl)-2,3-dihydro-isoindol-1-one] | –
8 | 7730 | > 10000 | > 300 | CCN1CCN(c2cccc3c2CN([C@H](CCCOCc2c(F)cccc2F)c2ccc(OC)c(OC)c2)C3=O)CC1 [Cpd 46, 2-[(1R)-4-(2,6-difluoro-benzyloxy)-1-(3,4-dimethoxy-phenyl)-butyl]-4-(4-ethyl-piperazin-1-yl)-2,3-dihydro-isoindol-1-one] | –
9 | 81 | 628 | 77 | CCN1CCN(c2cccc3c2CN([C@H](CCCNC(=O)c2ccncc2)c2ccc(OC)c(OC)c2)C3=O)CC1 [Cpd 54, N-{(4R)-4-(3,4-dimethoxy-phenyl)-4-[4-(4-ethyl-piperazin-1-yl)-1-oxo-1,3-dihydro-isoindol-2-yl]-butyl}-isonicotinamide] | –

Row | Structure (SMILES) | IC50 [1] [nM] | IC50 [2] [nM] | Ki [3] [nM] | Ki ([3]; read-out: Human UII Average Binding Ki, intact HSMM, 0.150 nM (^125I)-U-II, 3 h, 25° C.) [nM]
10 | COc1ccc([C@@H](CCCN(C)S(=O)(=O)c2cccs2)N2Cc3c(cccc3N3CCN(C4CCC4)CC3)C2=O)cc1OC [Cpd 9, thiophene-2-sulfonic acid [(4R)-4-[4-(4-cyclobutyl-piperazin-1-yl)-1-oxo-1,3-dihydro-isoindol-2-yl]-4-(3,4-dimethoxy-phenyl)-butyl]-methyl-amide] | 4 | 511 | – | 44
